Key:
Experiment in all cases: Test D controlled growth environment herbicide test, pre- and postemergence
Assay type in all cases: in vivo
[1] = test system: barley, winter (winter barley, Hordeum vulgare)
Outline: (§1)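 Species sown in silt loam and sprayed preemergence, or grown in peat-based medium to 2–18 cm (1- to 4-leaf stage) and sprayed postemergence, with compounds in non-phytotoxic solvent plus surfactant. Visual injury scored versus controls after 14–21 d in a controlled environment, 0 (no effect) to 100 (complete control).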

[2] = test system: oat, wild (wild oat, Avena fatua)
Outline: as §1

[3] = test system: galium (catchweed bedstraw, Galium aparine)
Outline: as §1

[4] = test system: barley, spring (spring barley, Hordeum vulgare)
Outline: as §1

[5] = test system: bluegrass (annual bluegrass, Poa annua)
Outline: as §1

kochia (Kochia scoparia) = test system: kochia (Kochia scoparia)
Outline: as §1

[6] = test system: speedwell (bird's-eye speedwell, Veronica persica)
Outline: as §1

[7] = test system: chamomile (scentless chamomile, Matricaria inodora)
Outline: as §1

[8] = test system: bromegrass, downy (downy bromegrass, Bromus tectorum)
Outline: as §1

[9] = test system: canarygrass (Phalaris minor)
Outline: as §1

[10] = test system: lambsquarters (Chenopodium album)
Outline: as §1

[11] = test system: mustard, wild (wild mustard, Sinapis arvensis)
Outline: as §1

[12] = test system: foxtail, green (green foxtail, Setaria viridis)
Outline: as §1

[13] = Postemergence, 31 g ai/ha, scale 0 to 100 (0 no effect, 100 complete control)
[14] = Postemergence, 125 g ai/ha, visual rating on scale 0 (no effect) to 100 (complete control), 14 to 21 d
[15] = Postemergence, 250 g ai/ha, scale 0 to 100 (0 no effect, 100 complete control)
[16] = Preemergence, 62 g ai/ha, scale 0 to 100 (0 no effect, 100 complete control)
[17] = Preemergence, 125 g ai/ha, scale 0 to 100 (0 no effect, 100 complete control)
[18] = Preemergence, 250 g ai/ha, scale 0 to 100 (0 no effect, 100 complete control)
[19] = postemergence, 62 g ai/ha, scale 0 to 100, 0 no effect, 100 complete control

In the case of `Cc1ccc2ccccc2c1-c1c(O)c(C)nn(C)c1=O` [Compound 59], the “Barley, Winter plant response rating” value [1, 13] is reported as 20, the “Plant response rating, Barley, Winter” value [1, 14] is reported as 45 and the “Plant response rating, Barley, Winter” value [1, 15] is reported as 60. For the same compound, the “Plant response rating (scale of 0 to 100), Barley, Winter” value ([1]; Preemergence, 31 g ai/ha) was 15, the “Plant response rating, Barley, Winter” value [1, 16] was 25 and the “Plant response rating, Barley, Winter” value [1, 17] was 40. For the same compound, the “Plant response rating, Barley, Winter” value [1, 18] was 45, the “Plant response rating, Barley, Winter” value [1, 19] was 30 and the “Oat, Wild plant response rating” value [2, 13] was 80. The “Plant response rating, Oat, Wild” value [2, 14] was 95, the “Plant response rating, Oat, Wild” value [2, 15] was 98 and the “Plant response rating (scale of 0 to 100), Oat, Wild” value ([2]; Preemergence, 31 g ai/ha) was 90. For the same compound, the “Plant response rating, Oat, Wild” value [2, 16] was 90, the “Plant response rating, Oat, Wild” value [2, 17] was 95 and the “Plant response rating, Oat, Wild” value [2, 18] was 100. For the same compound, the “Plant response rating, Oat, Wild” value [2, 19] was 90, the “Galium plant response rating” value [3, 13] was 100 and the “Plant response rating, Galium” value [3, 14] was 100. The “Plant response rating, Galium” value [3, 15] was 100, the “Plant response rating (scale of 0 to 100), Galium” value ([3]; Preemergence, 31 g ai/ha) was 95 and the “Plant response rating, Galium” value [3, 16] was 95. For the same compound, the “Plant response rating, Galium” value [3, 17] was 100, the “Plant response rating, Galium” value [3, 18] was 100 and the “Plant response rating, Galium” value [3, 19] was 100. The “Barley, Spring plant response rating” value [4, 13] was 25, the “Plant response rating, Barley, Spring” value [4, 14] was 40 and the “Plant response rating, Barley, Spring” value [4, 15] was 60. For the same compound, the “Plant response rating (scale of 0 to 100), Barley, Spring” value ([4]; Preemergence, 31 g ai/ha) was 5, the “Plant response rating, Barley, Spring” value [4, 16] was 25 and the “Plant response rating, Barley, Spring” value [4, 17] was 40. The “Plant response rating, Barley, Spring” value [4, 18] was 60, the “Plant response rating, Barley, Spring” value [4, 19] was 30 and the “Bluegrass plant response rating” value [5, 13] was 25. For the same compound, the “Plant response rating, Bluegrass” value [5, 14] was 55, the “Plant response rating, Bluegrass” value [5, 15] was 75 and the “Plant response rating (scale of 0 to 100), Bluegrass” value ([5]; Preemergence, 31 g ai/ha) was 30. For the same compound, the “Plant response rating, Bluegrass” value [5, 16] was 50, the “Plant response rating, Bluegrass” value [5, 17] was 75 and the “Plant response rating, Bluegrass” value [5, 18] was 80. For the same compound, the “Plant response rating, Bluegrass” value [5, 19] was 40, the “Kochia plant response rating” value (kochia (Kochia scoparia); [13]) was 95 and the “Plant response rating, Kochia” value (kochia (Kochia scoparia); [14]) was 95. For the same compound, the “Plant response rating, Kochia” value (kochia (Kochia scoparia); [15]) was 100, the “Plant response rating (scale of 0 to 100), Kochia” value (kochia (Kochia scoparia); Preemergence, 31 g ai/ha) was 20 and the “Plant response rating, Kochia” value (kochia (Kochia scoparia); [16]) was 60. The “Plant response rating, Kochia” value (kochia (Kochia scoparia); [17]) was 95, the “Plant response rating, Kochia” value (kochia (Kochia scoparia); [18]) was 100 and the “Plant response rating, Kochia” value (kochia (Kochia scoparia); [19]) was 95. For the same compound, the “Speedwell plant response rating” value [6, 13] was 65, the “Plant response rating, Speedwell” value [6, 14] was 100 and the “Plant response rating, Speedwell” value [6, 15] was 100. The “Plant response rating (scale of 0 to 100), Speedwell” value ([6]; Preemergence, 31 g ai/ha) was 100, the “Plant response rating, Speedwell” value [6, 16] was 100 and the “Plant response rating, Speedwell” value [6, 17] was 100. The “Plant response rating, Speedwell” value [6, 18] was 100, the “Plant response rating, Speedwell” value [6, 19] was 100 and the “Chamomile plant response rating” value [7, 13] was 80. For the same compound, the “Plant response rating, Chamomile” value [7, 14] was 85, the “Plant response rating, Chamomile” value [7, 15] was 100 and the “Plant response rating (scale of 0 to 100), Chamomile” value ([7]; Preemergence, 31 g ai/ha) was 100. The “Plant response rating, Chamomile” value [7, 16] was 95, the “Plant response rating, Chamomile” value [7, 17] was 100 and the “Plant response rating, Chamomile” value [7, 18] was 100. The “Plant response rating, Chamomile” value [7, 19] was 80, the “Bromegrass, Downy plant response rating” value [8, 13] was 35 and the “Plant response rating, Bromegrass, Downy” value [8, 14] was 70. The “Plant response rating, Bromegrass, Downy” value [8, 15] was 85, the “Plant response rating (scale of 0 to 100), Bromegrass, Downy” value ([8]; Preemergence, 31 g ai/ha) was 75 and the “Plant response rating, Bromegrass, Downy” value [8, 16] was 85. The “Plant response rating, Bromegrass, Downy” value [8, 17] was 90, the “Plant response rating, Bromegrass, Downy” value [8, 18] was 95 and the “Plant response rating, Bromegrass, Downy” value [8, 19] was 70. The “Canarygrass plant response rating” value [9, 13] was 75, the “Plant response rating, Canarygrass” value [9, 14] was 90 and the “Plant response rating, Canarygrass” value [9, 15] was 90. The “Plant response rating (scale of 0 to 100), Canarygrass” value ([9]; Preemergence, 31 g ai/ha) was 80, the “Plant response rating, Canarygrass” value [9, 16] was 90 and the “Plant response rating, Canarygrass” value [9, 17] was 95. For the same compound, the “Plant response rating, Canarygrass” value [9, 18] was 100, the “Plant response rating, Canarygrass” value [9, 19] was 80 and the “Lambsquarters plant response rating” value [10, 13] was 90. For the same compound, the “Plant response rating, Lambsquarters” value [10, 14] was 90, the “Plant response rating, Lambsquarters” value [10, 15] was 95 and the “Plant response rating (scale of 0 to 100), Lambsquarters” value ([10]; Preemergence, 31 g ai/ha) was 95. The “Plant response rating, Lambsquarters” value [10, 16] was 100, the “Plant response rating, Lambsquarters” value [10, 17] was 100 and the “Plant response rating, Lambsquarters” value [10, 18] was 100. The “Plant response rating, Lambsquarters” value [10, 19] was 85, the “Mustard, Wild plant response rating” value [11, 13] was 90 and the “Plant response rating, Mustard, Wild” value [11, 14] was 100. The “Plant response rating, Mustard, Wild” value [11, 15] was 100, the “Plant response rating (scale of 0 to 100), Mustard, Wild” value ([11]; Preemergence, 31 g ai/ha) was 95 and the “Plant response rating, Mustard, Wild” value [11, 16] was 95. For the same compound, the “Plant response rating, Mustard, Wild” value [11, 17] was 100, the “Plant response rating, Mustard, Wild” value [11, 18] was 100 and the “Plant response rating, Mustard, Wild” value [11, 19] was 100. For the same compound, the “Foxtail, Green plant response rating” value [12, 13] was 65, the “Plant response rating, Foxtail, Green” value [12, 14] was 75 and the “Plant response rating, Foxtail, Green” value [12, 15] was 85. For the same compound, the “Plant response rating (scale of 0 to 100), Foxtail, Green” value ([12]; Preemergence, 31 g ai/ha) was 55, the “Plant response rating, Foxtail, Green” value [12, 16] was 75 and the “Plant response rating, Foxtail, Green” value [12, 17] was 85. The “Plant response rating, Foxtail, Green” value [12, 18] was 100 and the “Plant response rating, Foxtail, Green” value [12, 19] was 70.

Reference: patent US10597388B2, “Pyridazinone herbicides” (FMC CORPORATION, priority 2014, dated 2020)
